Assay [1] has as its target T1, aromatase (CYP19) (Homo sapiens, UniProt P11511).
T1 sequence (P11511 1-503): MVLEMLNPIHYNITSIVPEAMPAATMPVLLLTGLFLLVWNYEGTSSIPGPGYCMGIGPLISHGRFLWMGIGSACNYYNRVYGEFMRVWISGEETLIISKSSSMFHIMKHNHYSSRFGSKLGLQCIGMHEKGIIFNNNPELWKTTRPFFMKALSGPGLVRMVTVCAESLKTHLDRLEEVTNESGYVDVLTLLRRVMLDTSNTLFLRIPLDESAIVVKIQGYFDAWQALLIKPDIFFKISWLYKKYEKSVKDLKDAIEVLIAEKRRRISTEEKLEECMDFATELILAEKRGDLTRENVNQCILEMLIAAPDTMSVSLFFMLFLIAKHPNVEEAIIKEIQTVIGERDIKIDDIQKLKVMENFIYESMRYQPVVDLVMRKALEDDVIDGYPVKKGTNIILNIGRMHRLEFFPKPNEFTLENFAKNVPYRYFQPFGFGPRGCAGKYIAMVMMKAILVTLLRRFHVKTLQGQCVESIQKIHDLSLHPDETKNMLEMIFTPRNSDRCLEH
The assay can be described thus: Aromatase inhibitory assay (Gentest kit, DBF fluorometric substrate).
Experimental: The aromatase inhibitory effect was performed using the method reported by Stressor et al.[35].
This method was carried out according to the Gentest kit using CYP19 enzyme and DBF as a
fluorometric substrate. DBF was dealkylated by aromatase and then hydrolyzed to give the
fluorescein product. Briefly, 100 μL of cofactor, containing 78.4 μL of 50 mM phosphate buffer
(pH 7.4); 20 μL of 20x NADPH-generating system (26 mM NADP+, 66 mM glucose-6-phosphate,
and 66 mM MgCl2); and 1.6 μL of 100 U/mL glucose-6-phosphate dehydrogenase, was pipetted
into a 96-well plate and preincubated in 37 °C (water bath) for 10 min. The reaction was initiated
by addition of 100 μL of enzyme/substrate mixture containing 77.3 μL of 50 mM
phosphate buffer (pH 7.4); 12.5 μL of 16 pmol/mL CYP19; 0.2 μL of 0.2 mM DBF, and 10 μL of
0.25 mM diluted tested sample or 10% DMSO as a negative control or letrozole as a positive
control. Fluorescence signal was recorded using an excitation wavelength of 490 nm and emission
Percentage of inhibition (%inhibition) was calculated
as shown in Equation (1).
assayed in triplicate. Finally, IC50 values were determined by plot of concentrations versus %

The subject of assay [2] is Panc-1 cells. The assay can be described thus: Antiproliferative assay, Panc-1. In kind it is cell-based. The note with it: Homo sapiens; Panc-1 pancreatic cancer cell line; read-out: Antiproliferative activity IC50 ± SEM, Panc-1. As for the experimental part: (§1) 4.2.2. Assay for antiproliferative effect
(§2) To explore the antiproliferative potential of compounds propidium iodide fluorescence assay was performed using different cell lines such as Panc-1 (pancreas cancer cell line), MCF-7 (breast cancer cell line), HT-29 (colon cancer cell line) and A-549 (epithelial cancer cell line), respectively. To calculate the total nuclear DNA, a fluorescent dye (propidium iodide, PI) is used which can attach to the DNA, thus offering a quick and precise technique. PI cannot pass through the cell membrane and its signal intensity can be considered as directly proportional to quantity of cellular DNA. Cells whose cell membranes are damaged or have changed permeability are counted as dead ones. The assay was performed by seeding the cells of different cell lines at a density of 3000-7500 cells/well (in200μl medium) in culture plates followed by incubation for 24h at 37 °C in humidified 5%CO2/95% air atmospheric conditions. The medium was removed; the compounds were added to the plates at 10 μM concentrations (in 0.1% DMSO) in triplicates, followed by incubation for 48h. DMSO (0.1%) was used as control. After incubation, medium was removed followed by the addition of PI (25 μl, 50μg/mL in water/medium) to each well of the plates. At - 80 °C, the plates were allowed to freeze for 24 h, followed by thawing at 25 °C. A fluorometer (Polar-Star BMG Tech) was used to record the readings at excitation and emission wavelengths of 530 and 620 nm for each well. The percentage cytotoxicity of compounds was calculated using […]
(§3) Where ATC= Absorbance of treated cells and AC= Absorbance of control. Erlotinib was used as positive control in the assay.

Assay [3] addresses T2, eNOS (Bos taurus, UniProt P29473).
T2 construct: purchased Cayman Chemical (Ann Arbor, USA)
In words: NOS inhibition assay (L-citrulline, fluorometric detection), eNOS. It is filed as biochemical, bovine. The settings on record: for inhibition at 10 µM / Inhibition (%) eNOS: compound at 10 µM. The procedure: The investigated compounds were tested at 1 µM against the iNOS and 10 µM against the eNOS to determine their isoform selectivity. Because of its critical role in cardiovasculature, inhibiting the constitutive enzyme eNOS should be avoided.
Refer to Supplementary Appendix SA1 for more details.
4.2.4. NOS inhibition assay
Recombinant human iNOS was purchased from Enzo Life Sciences, Inc. (New York, USA).
Recombinant bovine eNOS was purchased from Cayman Chemical (Ann Arbor, USA). To measure iNOS activity, 10 μL of enzyme stock solution were added to 80 μL of 2-[4-(2-hydroxyethyl) piperazin-1-yl]ethanesulfonic acid (HEPES) buffer pH = 7.4, 100 mM, containing 0.1 mM CaCl2, 1 mM D,L-dithiothreitol (DTT), 0.5 mg/mL BSA, 10 μM flavin mononucleotide (FMN), 10 μM flavin adenine dinucleotide (FAD), 30 μM tetrahydrobiopterin (BH4), 10 μg/mL calmodulin (CaM), 10 μM L-Arg. For the eNOS activity evaluation, 25 μL of the enzyme stock solution were added to 65 μL of HEPES buffer containing 2 mM CaCl2 and the same cofactors […]
μM) were added to the enzyme assay solution, followed by pre -incubation of 15 min at 37 ◦C.
Each reaction was initiated by the addition of 10 μL of NADPH 7.5 mM, carried out at 37 ◦C for 30 min, and stopped by adding 500 μL of ice -cold CH3CN. The mixture was brought to dryness under vacuum and eventually stored at – 20 ◦C, before the HPLC analysis. […]

Assay [4] has as its system HT-29 cells. In words: Antiproliferative assay, HT-29. It is filed as cell-based. The settings on record: Homo sapiens; HT-29 colon cancer cell line; read-out: Antiproliferative activity IC50 ± SEM, HT-29. As for the experimental part: as §1, §2, §3
Assay [5] concerns four human cancer cell lines (A-549, MCF-7, Panc-1, HT-29). In words: Antiproliferative assay, average over four cancer cell lines (GI50). The note with it: for IC50: average of IC50 against A-549, MCF-7, Panc-1, HT-29. In kind it is cell-based. The procedure: See Supplementary Appendix SA1 for more details.
as §1
To explore the antiproliferative potential of compounds propidium iodide fluorescence assay was performed using different cell lines such as Panc-1 (pancreas cancer cell line), MCF-7 (breast […]
respectively. To calculate the total nuclear DNA, a fluorescent dye (propidium iodide, PI) is used which can attach to the DNA, thus offering a quick and precise technique. PI cannot pass through the cell membrane and its signal intensity can be considered as directly proportional to quantity of cellular DNA. Cells whose cell membranes are damaged or have changed permeability are counted as dead ones. The assay was performed by seeding the cells of different cell lines at a density of […]
The medium was removed; the compounds were added to the plates at 10 μM concentrations (in 0.1% DMSO) in triplicates, followed by incubation for 48h. DMSO (0.1%) was used as control. After incubation, medium was removed followed by the addition of PI (25 μl, 50μg/mL in water/medium) to each well of the plates. At - 80 °C, the plates were allowed to freeze for 24 h, followed by thawing at 25 °C. A fluorometer (Polar-Star BMG Tech) was used to record the readings at excitation and emission wavelengths of 530 and 620 nm for each well. The percentage cytotoxicity of compounds was calculated using […]
Where ATC= Absorbance of treated cells and AC= Absorbance of control. […]
positive control in the assay.

With `CCc1c2cc(Cl)ccc2n2c(C)c(C(=O)OCc3ccccc3)[nH]c(=O)c12` [Compound 5, benzyl 8-chloro-10-ethyl-4-methyl-1-oxo-1,2-dihydropyrazino [1,2-a]indole-3-carboxylate], the IC50 stood at 0.02 ± 0.002 µM in assay [1], 0.032 ± 0.003 µM in assay [2], 0.032 ± 0.003 µM in assay [4] and 0.032 µM in assay [5] (Homo sapiens). For the same molecule, the inhibition at 10 µM in assay [3] worked out at 49 ± 2%.

As for `CCc1c2cc(Cl)ccc2n2c(C)c(C(=O)NCc3ccccc3)[nH]c(=O)c12` [Compound 7, N-benzyl-8-chloro-10-ethyl-4-methyl-1-oxo-1,2-dihydropyrazino [1,2-a]indole-3-carboxamide], the IC50 in assay [1] turned out to be 0.015 ± 0.001 µM; in assay [2], 0.028 ± 0.002 µM; in assay [4], 0.029 ± 0.002 µM; in assay [5] (Homo sapiens), 0.029 µM. Besides, the “Inhibition (%) eNOS” value in assay [3] is recorded as “moderate inhibitory action”. This molecule showed an inhibition at 10 µM in assay [3] of 32 ± 2%. Also, in assay [5], the “Fold more effective than compound 11 (GI50)” value is listed as “at least 1.4 fold”.

Consider `CCc1c2cc(Cl)ccc2n2cc(Cc3ccccc3)n(C)c(=O)c12` [Compound 12, 3-Benzyl-8-chloro-10-ethyl-2-methylpyrazino[1,2-a]indol-1(2H)-one], for which, in assay [1], the “Fold less potent than Letrozole (aromatase IC50)” value is reported as 5 fold. Besides, the “Fold more potent than Ketoconazole (aromatase IC50)” value in assay [1] was “at least 10 fold”. Also, the IC50 was 0.01 ± 0.001 µM in assay [1]; 0.024 ± 0.002 µM in assay [2]; more than 50 µM in assay [3]; 0.025 ± 0.002 µM in assay [4]; 0.025 µM in assay [5] (Homo sapiens); 0.024 µM in assay [5]. Further, the “Inhibition (%) eNOS” value in assay [3] is “completely inactive”. Besides, the “Fold potency relative to Erlotinib (GI50)” value in assay [5] (GI50 24 nM vs Erlotinib […] nM) is on record as 1.4 fold.

For `CCc1c2cc(Cl)ccc2n2cc(-c3ccccc3)[nH]c(=O)c12` [Compound 16, 8-Chloro-10-ethyl-3-phenylpyrazino [1,2-a]indol-1(2H)-one], the IC50 was 0.012 ± 0.001 µM in assay [1]; 0.025 ± 0.002 µM in assay [2]; more than 50 µM in assay [3]; 0.025 ± 0.002 µM in assay [4]; 0.028 µM in assay [5] (Homo sapiens); 0.026 µM in assay [5]. Further, in assay [3], the “IC50 eNOS” value was “inactive”. Besides, the “Inhibition (%) eNOS” value in assay [3] was “completely inactive”. Further, the “Fold more effective than compound 11 (GI50)” value in assay [5] is given as “at least 1.4 fold”.

In general, IC50 refers to the midpoint of a concentration-inhibition curve. The inhibition is the relative decrease from the control value, in per cent. Low readings indicate a weak effect, high ones a strong effect.

Source of the values: publication PMC11414412, “Design and synthesis new indole-based aromatase/iNOS inhibitors with apoptotic antiproliferative activity” (Frontiers in Chemistry, 2024).
